In patent EP1399176B1, “SUBSTANTIALLY PURE GLYCOPEPTIDE ANTIBIOTICS AC-98-1; AC-98-2; AC-98-3; AC-98-4 AND AC-98-5” (Wyeth Holdings Corporation, priority 2001, dated 2002) one finds MIC data, which are given here for 5 compounds.

What all share (test): in vitro antibacterial activity, agar dilution method (MIC)
Type in all cases: cell-based
Set-up in all cases: unit not given here
What all share (details): Mueller-Hinton agar containing 5% sheep blood, 18 hours incubation
(In general: In agar dilution the substance is mixed into plates at graded concentrations.)

Experiment [1] concerns Pseudomonas aeruginosa (ATCC 27853). As for the experimental part: (§1) The in vitro antibacterial activity of substantially pure glycopeptide antibiotics AC-98-1, AC-98-2, AC-98-3, AC-98-4, and AC-98-5 from Examples 2 and 3 is determined against a spectrum of bacteria by a standard agar dilution method. Mueller-Hinton agar containing 5% sheep blood and two-fold decreasing concentrations of substantially pure glycopeptide antibiotics AC-98-1, AC-98-2, AC-98-3, AC-98-4, and AC-98-5 from Examples 2 and 3 are poured into petri dishes. The agar surfaces are inoculated with 1 to 5 X 10^4 colony forming units of bacteria by means of a Steers replicating device. The lowest concentration of antibiotic that inhibited the growth of a bacterial strain after 18 hours incubation is recorded as the minimal inhibitory concentration for that strain. Table II. In vitro antibacterial activity of substantially pure antibiotics AC-98-1, AC-98-2, AC-98-3, AC-98-4, and AC-98-5 from Examples 2 and 3

Experiment [2] relates to Staphylococcus aureus (SMITH). As for the experimental part:
as §1

The test system of experiment [3] is Enterococcus faecium (ID-3301). As for the experimental part:
as §1

Experiment [4] has as its system Enterococcus faecalis (ATCC 29212). As for the experimental part: as §1
The subject of experiment [5] is Enterococcus faecium (ID-4133). As for the experimental part:
as §1

Experiment [6] concerns Bacillus subtilis (Bacto). As for the experimental part:
as §1

In experiment [7] the test system is Morganella morganii (VGH 84-11). As for the experimental part:
as §1

The test system of experiment [8] is Enterococcus faecalis (ID-2131). As for the experimental part: as §1
Experiment [9] concerns Staphylococcus aureus (NEMC-89-4). As for the experimental part:
as §1

Experiment [10] has as its system Staphylococcus aureus (ID-2371). As for the experimental part: as §1
Experiment [11] has as its system Staphylococcus aureus (ATCC 29213). As for the experimental part: as §1
Experiment [12] concerns Staphylococcus hemolyticus (ID-4061). As for the experimental part: as §1
The test system of experiment [13] is Staphylococcus aureus (ID-2727). As for the experimental part: as §1
Experiment [14] deals with Enterococcus faecalis (ID-1829). As for the experimental part: as §1
The test system of experiment [15] is Staph Coagulase Neg (4615). As for the experimental part: as §1
Experiment [16] concerns Enterococcus faecium (ID-3953). As for the experimental part: as §1
Experiment [17] concerns Enterococcus faecium (12202). As for the experimental part: as §1
For experiment [18], the system named is Staphylococcus aureus (ID-4379). As for the experimental part: as §1
The subject of experiment [19] is Staph Coagulase Neg (ID-3276). As for the experimental part:
as §1

In experiment [20] the test system is Staphylococcus aureus (ID-3105). As for the experimental part: as §1
Experiment [21] relates to Escherichia coli (J2175). As for the experimental part:
as §1

The structures appear in SMILES notation. Numbered stars: 1 amine (or outer) side, 2 acyl side, 3 side chain; on linkers, the order of the positions; unused ones are H or OH. Square brackets hold non-standard residues; d marks the D form. Peptide text beside a SMILES is read from it. * marks the point of attachment. ξ: configuration not given here. X1 = N=C1NCC(C(O)C(N[*:1])C(=O)[*:2])N1C1OC(CO)C(O)C(O)C1O; ξEnduracididine(βξ-OH,4'ξ) = N=C1NCC(C(O)C(N)C(=O)O)N1; X2 = OCC1OC(OC2C(CO)OC(*)C(O)C2O)C(O)C(O)C1O; ξPhe(βξ-Me) = CC(c1ccccc1)C(N)C(=O)O

Regarding `CC(c1ccccc1)C1NC(=O)CNC(=O)C(CO)NC(=O)C(C(O)C2CNC(=N)N2C2OC(CO)C(O)C(O)C2O)NC(=O)C(C(O)C2CNC(=N)N2)NC(=O)C(Cc2ccc(OC3OC(CO)C(OC4OC(CO)C(O)C(O)C4O)C(O)C3O)cc2)NC1=O` (stereo not drawn) [AC-98-1] (cyclo(G[ξPhe(βξ-Me)]Y(X2)[ξEnduracididine(βξ-OH,4'ξ)][X1]S); configuration not given here), the MIC in experiment [1] is listed as more than 128; in [2], 128; in [3] it was more than 128; in experiment [4], more than 128; in experiment [5], 128; in experiment [6], more than 128. Also, the MIC in experiment [7] is reported as more than 128; in experiment [8] it was more than 128; in experiment [9], more than 128; in experiment [10], more than 128; in [11], 128; in experiment [12], 128. Further, the MIC is recorded as more than 128 in [13]; more than 128 in experiment [14]; more than 128 in experiment [15]; more than 128 in [16]; more than 128 in [17]; 128 in [18]. In addition, the MIC in experiment [19] and in experiment [20] was 128 throughout.
Regarding `CC(c1ccccc1)C1NC(=O)CNC(=O)C(CO)NC(=O)C(C(O)C2CNC(=N)N2C2OC(CO)C(O)C(O)C2O)NC(=O)C(C(O)C2CNC(=N)N2)NC(=O)C(Cc2ccc(O)cc2)NC1=O` (stereo not drawn) [AC-98-2] (cyclo(G[ξPhe(βξ-Me)]Y[ξEnduracididine(βξ-OH,4'ξ)][X1]S); configuration not given here), the MIC in [1], in experiment [3], in experiment [4], in experiment [6], in experiment [7] and in experiment [8] was more than 128 throughout. In addition, the MIC in [10], in experiment [14], in [15], in [16] and in experiment [17] was 128 each time.
Consider `CC(C)CC(=O)OC1C(OC2C(CO)OC(Oc3ccc(CC4NC(=O)C(C(C)c5ccccc5)NC(=O)CNC(=O)C(CO)NC(=O)C(C(O)C5CNC(=N)N5C5OC(CO)C(O)C(O)C5O)NC(=O)C(C(O)C5CNC(=N)N5)NC4=O)cc3)C(O)C2O)OC(CO)C(O)C1O` (stereo not drawn) [AC-98-3], for which the MIC in experiment [1] was more than 128; in experiment [7], more than 128; in [8] it was 128.
`CC(C)CC(=O)OC1C(O)C(CO)OC(OC2C(CO)OC(Oc3ccc(CC4NC(=O)C(C(C)c5ccccc5)NC(=O)CNC(=O)C(CO)NC(=O)C(C(O)C5CNC(=N)N5C5OC(CO)C(O)C(O)C5O)NC(=O)C(C(O)C5CNC(=N)N5)NC4=O)cc3)C(O)C2O)C1O` (stereo not drawn) [AC-98-4]: the MIC in experiment [1] is on record as more than 128; in [7], more than 128; in [21] it was 128.
Consider `CC(C)CC(=O)OC1C(CO)OC(OC2C(CO)OC(Oc3ccc(CC4NC(=O)C(C(C)c5ccccc5)NC(=O)CNC(=O)C(CO)NC(=O)C(C(O)C5CNC(=N)N5C5OC(CO)C(O)C(O)C5O)NC(=O)C(C(O)C5CNC(=N)N5)NC4=O)cc3)C(O)C2O)C(O)C1O` (stereo not drawn) [AC-98-5], for which the MIC in experiment [1] and in experiment [7] was more than 128 each time.
